Read-outs that look alike come from different tables or passages of the source.
Tests used:
[1] = system: trachea ciliate cells; test: Ciliary motility in the dog's trachea in vitro (transit speed of a charcoal bolus); assay type: cell-based; settings: for SPEED OF CHARCOAL PARTICLES 5 Minutes mm/min. x̄ ± ES / SPEED OF CHARCOAL PARTICLES 10 Minutes mm/min x̄ ± ES / SPEED OF CHARCOAL PARTICLES 20 Minutes mm/min. x̄ ± ES / activation at 100 µg/mL: 10^-4 g/ml; for activation at 100 µg/mL: Canis lupus familiaris; for SPEED OF CHARCOAL PARTICLES Basal mm/min. x̄ ± ES: group later treated with 10^-4 g/ml
Text: The mucolytic activity of many products is due in that they induce an increase of motility in the trachea ciliate cells.
The method hereinafter described allows to assess "in vitro" if a compound increases, or not, the motility of said cells. The method is based on the measurement of the transit speed of a charcoal bolus in a section of trachea.
The method used is that described by J.E. Lightowler and N.H. Lightowler (Arch. Int. Pharmacodyn. 189, 53-58, 1971) and uses an apparatus similar to that described by T. Dalhamn (Acta Physiol. Scand. Suppl. 123, 1956).

[2] = system: chronic bronchitis induced by inhalation of SO in the rat; test: Chronic bronchitis induced by SO2 inhalation; assay type: in vivo; settings: 50 mg/kg by gastric tube
Text: The action of PU 163 in comparison with Ambroxol on the chronic bronchitis induced by inhalation of SO in the rat has been evaluated according to the method described by Quevauvillier e coll. (Therapie, XXII; 185-193; 1967). […] The efficacy of […] been evaluated in function of the regression degree of the pulmonary lesions induced by […] inhalation.

[3] = system: pulmonary emphysema induced in the guinea pig; test: Pulmonary emphysema induced by intratracheal porcine pancreatic elastase; assay type: in vivo; settings: 50 mg/kg i.p. 1 hour after the elastase injection
Method: The ability of PU 163 of antagonizing the pulmonary emphysema induced in the guinea pig by intratracheal injection of 0.1 mg of porcine pancrea tic elastase has been evaluated in comparison with Ambroxol, according to the method described by Stone P.J. et al. (Am. Rev. Resp. Dis. 124/1, 56-59; 1981). Both compounds have been administered by the i.p. route at the equiponderant dose of 50 mg/kg 1 hour after the elastase injection.

[4] = system: alveolar surfactant; test: Activity on the alveolar surfactant (static volume-pulmonary pressure curves); assay type: in vivo; settings: rat, 50 mg/kg p.o.
Method: This test allow to verify if a compound can modi fy the surfaces of lung alveoli, as there are pathological conditions in which a superficial firm is produced in the alveoli which, as time goes on, can produce foam in the bronchi, making the respiration difficult. In order to assess this kind of activity, the method described by Curty P.C. (Arzneim. Forsch. Drug. Res., 24, 847, 1974) is used. According to said method the volume and the pressure after insufflation in the rat's lung, are measured. […] After sacrifice, and after the trachea incan nulation, the respiratory apparatus has been extracted from the thoracic cavity and the static cur ves of volume-pulmonary pressure.

[5] = Pharmacokinetics and organ distribution by HPLC; assay type: in vivo; settings: rat, oral route, equimolar dose corresponding to 50 mg/kg of Ambroxol base
Method: The pharmacokynetics behaviour and the distribu tion in the organs of PU 163, in comparison to Ambroxol, has been determined in the rat after ad ministration by the oral route of equimolar doses, corresponding to 50 mg/kg of Ambroxol base.

[6] = Acute toxicity, oral route, method of Litchfield and Wilcoxon; settings: in vivo, os
Text: The acute toxicity of PU 163 has been determined in the mouse and in the rat by the oral route accor ding to the method of Litchfield and Wilcoxon (J. Pharm. Exp. Therap. 1949, 96, 99).

[7] = system: rat; test: Bronchosecretogogue activity (Mawatari test, bronchial elimination of sodium fluorescein); assay type: in vivo; settings: 50 mg/kg i.p. (table head; text: oral route), percent increase of bronchial elimination
Text: The bronchosecretogogue activity of PU 163 and, as a comparison, of Ambroxol has been determined in the rat using the method described by Mawatari ("Experimental Studies on the Expectorant Action of Several Drugs", Kagoshima Daigaku Igaku Zasshi, 27, 561, 1976). […] After the animals'sacrifice, the evaluation of the amound of sodium fluorescein present at the bronchial level has been carried out. The results obtained, reported in the Table 3, are expressed as percent increase of the bronchial elimination of sodium fluorescein of the groups treated with Ambroxol and PU 163 in comparison with a control group.

[8] = system: elastase; test: Elastase inhibition (method of R.M. Senior); assay type: biochemical
Text: The inhibiting activity of PU 163 and of Ambroxol on elastase has been measured according to the method described by R.M. Senior (Plenum Press. New York; 249-254; 1977).

[9] = 5 min, 5 minutes, read-out: SPEED OF CHARCOAL PARTICLES 5 Minutes % Δ vs.Bas. x̄ ± ES
[10] = 10 min, 10 minutes, * p <0.05, read-out: SPEED OF CHARCOAL PARTICLES 10 Minutes % Δ vs.Bas. x̄ ± ES
[11] = 20 min, 20 minutes, ** p <0.01, read-out: SPEED OF CHARCOAL PARTICLES 20 Minutes % Δ vs.Bas. x̄ ± ES

| SMILES | SPEED OF CHARCOAL PARTICLES 5 Minutes mm/min. x̄ ± ES ([1]; 5 minutes) | SPEED OF CHARCOAL PARTICLES 10 Minutes mm/min x̄ ± ES ([1]; 10 minutes) | SPEED OF CHARCOAL PARTICLES 20 Minutes mm/min. x̄ ± ES ([1]; 20 minutes) | activation at 100 µg/mL [1, 9] | activation at 100 µg/mL [1, 10] | activation at 100 µg/mL [1, 11] | SPEED OF CHARCOAL PARTICLES Basal mm/min. x̄ ± ES [1] | percent regression (lesions degrees) [2] | Internal pulmonary pressure (cm. H2O) ([4]; de-insufflation, 0.5 cm^3) | Internal pulmonary pressure (cm. H2O) ([4]; de-insufflation, 1 cm^3) | Internal pulmonary pressure (cm. H2O) ([4]; de-insufflation, 1.5 cm^3) | Internal pulmonary pressure (cm. H2O) ([4]; de-insufflation, 2 cm^3) | Internal pulmonary pressure (cm. H2O) ([4]; de-insufflation, 2.5 cm^3) | Internal pulmonary pressure (cm. H2O) ([4]; de-insufflation, 3 cm^3) | Internal pulmonary pressure (cm. H2O) ([4]; insufflation, 0.5 cm^3) | Internal pulmonary pressure (cm. H2O) ([4]; insufflation, 1 cm^3) | Internal pulmonary pressure (cm. H2O) ([4]; insufflation, 1.5 cm^3) | Internal pulmonary pressure (cm. H2O) ([4]; insufflation, 2 cm^3) | Internal pulmonary pressure (cm. H2O) ([4]; insufflation, 2.5 cm^3) | Internal pulmonary pressure (cm. H2O) ([4]; insufflation, 3 cm^3) | also measured |
| --- | --- | --- | --- | --- | --- | --- | --- | --- | --- | --- | --- | --- | --- | --- | --- | --- | --- | --- | --- | --- | --- |
| O=C(Nc1c(Br)cc(Br)cc1CN[C@H]1CC[C@H](O)CC1)c1cccs1 [PU 163, 4-/ /(2-(2-thenoyl)-amino-3,5-dibromophenyl)-methyl/amino/cy-clohexanol] | 8.7 ±2.82 mm/min. | 10.2 ±2.02 mm/min | 11.5 ±2.38 mm/min. | 24.3 ± 7.8% | 45.7% | 64.3% | 7.00 ±1.40 mm/min. | 62% | 0.35 cm. H2O | 1.4 cm. H2O | 2.5 cm. H2O | 3.9 cm. H2O | 5.2 cm. H2O | 6.75 cm. H2O | 2.2 cm. H2O | 3.8 cm. H2O | 5.35 cm. H2O | 6.5 cm. H2O | 7.6 cm. H2O | 8.45 cm. H2O | activity of reducing emphysema [3]: high activity of reducing emphysema; Internal pulmonary pressure (cm. H2O) ([4]; insufflation, 3.5 cm^3): 9 cm. H2O; concentrations in the organs (pulmonary level) [5]: larger amounts of Ambroxol at the pulmonary level; plasma concentrations as Ambroxol ([5]; compared with Ambroxol treated group): detected at prolonged times; LD50 ([6]; mouse): > 2500 mg/kg; LD50 ([6]; rat): > 5000 mg/kg; SODIUM FLUORESCEIN % vs. control [7]: 39.3% |
| Nc1c(Br)cc(Br)cc1CN[C@H]1CC[C@H](O)CC1 [Ambroxol, 4-/ /(2-amino-3,5-dibromophenyl)-methyl/amino/cyclohexanol, reference compound] | 8.2 ±2.12 mm/min. | 9.5 ±1.62 mm/min | 10.2 ±2.31 mm/min. | 28.1 ± 3.54% | 57.6% | 59.4% | 6.4 ±1.30 mm/min. | 38% | 0.25 cm. H2O | 1.1 cm. H2O | 2.3 cm. H2O | 3.3 cm. H2O | 4.6 cm. H2O | 6.1 cm. H2O | 2.45 cm. H2O | 4.1 cm. H2O | 5.6 cm. H2O | 6.9 cm. H2O | 7.9 cm. H2O | 8.7 cm. H2O | Internal pulmonary pressure (cm. H2O) ([4]; insufflation, 3.5 cm^3): 9.3 cm. H2O; LD50 ([6]; mouse): > 2500 mg/kg; LD50 ([6]; rat): > 5000 mg/kg; inhibiting activity on elastase [8]: practically inactive; SODIUM FLUORESCEIN % vs. control [7]: 32.1% |

— patent publication EP0150787A2, “Compound having antibronchopneumopathic activity, process for its preparation and pharmaceutical compositions containing it” (PULITZER ITALIANA S.p.A., priority 1984, dated 1985)
